# Literature values, collected in US11904070B2, “Tissue scaffold and scaffold composition” (Locate Therapeutics Limited, priority 2017, dated 2024).
# Details: at 25° C.
row,Solubility in water,Compound
1,Miscible,C[S+](C)[O-] [DMSO]
2,Miscible,"CCO [EtOH, Ethanol]"
3,Miscible,OCC(O)CO [Glycerol]
4,Miscible,"CN1CCCC1=O [NMP, N-Methyl-2-pyrrolidone]"
5,5.8 % w/v,"CC(=O)OCC(COC(C)=O)OC(C)=O [Triacetin, triacetin]"
6,Miscible,polyethylene glycol 400 [PEG400]
